Source: patent US9222118B2 (priority 2008, dated 2015)
“Also recorded” adds a separate entry of the source. Structures can show the parent of a compound that is named as a salt.

Columns and labels:
EbolaΔVP30-GFP = format: cell-based, Zaire ebolavirus
VSVΔG*-Ebolavirus GP = format: cell-based; conditions: 10 μM
Ebolavirus minigenome = format: cell-based
EbolaΔVP30-GFP virus = assay: microbe, parasite or virus in culture; format: cell-based, Zaire ebolavirus; conditions: Zaire ebolavirus
vaccinia virus = format: cell-based
adenovirus Ad-5 = format: cell-based
[1] = test system: Vesicular stomatitis virus (VSV) strain Indiana; format: cell-based
VeroVP30 cells = conditions: green monkey
in vitro = conditions: green monkey
[2] = test system: VSV pseudotyped with Ebola GP glycoprotein; format: cell-based, Ebolavirus
[3] = test system: VSV pseudotyped with GPs of all known subtypes of Ebolavirus (Zaire, Reston, Sudan, Ivory Coast); format: cell-based
[4] = test system: VSV pseudotyped with the GP protein of Marburgvirus; format: cell-based
VSV = format: cell-based
influenza virus = format: cell-based
[5] = test system: phosphoinositide-3 (PI3) kinase-Akt pathway; format: cell-based

| Structure (SMILES) | reduction of EbolaΔVP30 virus growth (EbolaΔVP30-GFP) | Infectivities of VSVΔG*-Ebolavirus GP standardized by the infectivities of VSVΔG*-VSV G (VSVΔG*-Ebolavirus GP) | % luc activity from the Ebolavirus minigenome (Ebolavirus minigenome) | IC50 (EbolaΔVP30-GFP virus) | inhibition at 5 µM (EbolaΔVP30-GFP virus; read-out: % GFP inhibition) | inhibition of EbolaΔVP30-GFP growth (EbolaΔVP30-GFP) | inhibition of vaccinia virus growth (vaccinia virus) | inhibition of adenovirus growth (adenovirus Ad-5) | inhibition of VSV growth [1] | effect on protein expression from the Ebolavirus minigenome (Ebolavirus minigenome) | % cell viability (VeroVP30 cells) | CC50 (in vitro) | infection of VSV pseudotyped with Ebola GP bound to cell surfaces [2] | reduction of titers of pseudotyped viruses [3] | reduction of virus titers [4] | effect on growth of VSV (VSV) | effect on growth of influenza virus (influenza virus) | inhibition of the PI3 kinase-Akt pathway [5] |
| --- | --- | --- | --- | --- | --- | --- | --- | --- | --- | --- | --- | --- | --- | --- | --- | --- | --- | --- |
| COC1=C2C[C@@H](C)C[C@H](OC)[C@H](O)[C@@H](C)/C=C(\C)[C@H](OC(N)=O)[C@@H](OC)/C=C\C=C(/C)C(=O)NC(=CC1=O)C2=O [GM, geldanamycin] | 30% | 137% | 24.7%±7.7% |  |  |  |  |  |  |  |  |  |  |  |  |  |  |  |
| CC(=O)O[C@@H]1C[C@H]2C(C)(C)C(=O)C=C[C@]2(C)[C@H]2CC[C@@]3(C)[C@H](c4ccoc4)OC(=O)[C@H]4O[C@]43[C@@]21C [Gedunin] |  |  | 1.3%±0.2% | 330 nM | 102% | completely inhibited | slightly delay the propagation | slightly inhibitory; also recorded: slightly delay the propagation | slightly delay the propagation | inhibit protein expression from the Ebolavirus minigenome | 77% | > 10000 nM |  |  |  |  |  |  |
| CN1C2CCC1CC(OC(c1ccccc1)c1ccccc1)C2 (stereo not shown) [benztropine mesylate] |  |  |  |  |  |  |  |  |  |  |  |  | inhibit infection | 98-99% | about 75% | does not affect the growth | does not affect the growth | did not inhibit |
